Laboratory results taken from US7432307B2, “Modulators of retinol-retinol binding protein (RBP)-transthyretin (TTR) complex formation” (Sirion Therapeutics, Inc., priority 2004, dated 2008).
“Also recorded” adds a separate entry of the source.

Assays:
retinol-RBP-TTR complex = molecular target: T1, retinol-RBP-TTR complex (Homo sapiens, UniProt P02753); assay: High-throughput FRET assay for detection of RBP/TTR interaction (Alexa430-TTR); assay type: binding; settings: for inhibition of RBP-TTR interaction in high throughput assay: 384-well format, varied concentrations 0-4 μM, conditions of Example 7
T1 construct: purchased Sigma Chemical Co. (TTR only)
Text: Reduction of serum retinol and RBP are correlated with concomitant reductions in toxic lipofliscin fluorophores. Because compounds that affect RBP-TTR interaction will directly affect fluorophore levels in the eye, a high-throughput screen for small molecules which prevent interaction of RBP with TTR was developed. This screen employs probe-labeled forms of RBP and TTR which participate in a unique fluorescence resonance energy transfer (FRET) event when complexed. Compounds which interfere with RBP-TTR interaction prevent FRET. […] The sample is incubated at 37° C. for 30 min and then illuminated with 330 nm light. The emission spectra are shown in the range of 400-600 nm. HPR binds to RBP and prevents interaction with TTR, and here this property of HPR is utilized here to validate the ability of this screen to detect inhibition of RBP-TTR interaction. […] Additionally, the design of this assay permits discrimination between compounds which interact with RBP versus those which interact with TTR. Thus, by using two distinct excitation energies (280 nm and 330 nm, for protein and retinol, respectively) and implementing simultaneous monitoring of the retinol and TTR-probe fluorescence, the “target” of a presumptive small molecule can be easily determined.
In order to facilitate screening of large numbers of test compounds, the RBP-TTR assay has been adapted to a 384-well plate format. This transition required re-evaluation of the reagent concentrations and minimal assay volume for maintaining solubility and detection sensitivity. Under the 384-well plate format, the assay can be efficiently performed in a 50 μl volume using 0.5 μM apo-RBP, 0.5 μM TTR, 2-8 μM test compound and 1 μM retinol. The microplate with minimal fluorescence background, best optical clarity and most appropriate well design was determined to be Corning's model #3711.
Accordingly, HPR was employed at varied concentrations (from 0-4 μM), using the conditions specified in Example 7, to evaluate the high throughput assay.
The mechanism of action underlying this effect can be explained by the disruption of RBP-TTR interactions. In order to explore this possibility and to further validate the RBP-TTR screen, the effects of all-trans retinoic and 13-cis retinoic acid, using the conditions the conditions specified for analysis of HPR, were examined.

serum retinol and RBP = settings: cited from earlier work; for reduction in circulating RBP and circulating retinol in vivo: literature (several investigators; Berni et al. 1993)
ABCA4 null mutant mice = assay: HPR administered to ABCA4 null mutant mice for 28 days; serum retinol, ocular retinoids and A2E; assay type: in vivo
Procedure: In order to further explore the role of HPR in the visual cycle, the in vivo effects of HPR in mice have been examined. Thus, HPR was administered to ABCA4 null mutant mice (5-20 mg/kg, i.p. in DMSO) for periods of 28 days. Control mice received only the DMSO vehicle. At the end of the treatment period, the concentrations of retinol and HPR in serum and retinoid content in ocular tissues was measured. […] Thus, the calculated percent reduction for each of the measured retinoids, and A2E, was nearly identical (see FIG. 6). […] If systemically-administered HPR inhibits ocular LRAT, then reduction of ocular retinoids and A2E should exceed the reduction in serum retinol.
Genetic crosses of RBP4^−/− mice with ABCA4^−/− mice was undertaken to examine the role of RBP in mediation of retinol levels in serum and ocular tissue.

[1] = HPR administered to wild type mice for 5 days, illumination, then retinoids in serum and ocular tissue; assay type: in vivo; settings: mouse, ocular tissue, ip, 20 mg/kg i.p. in DMSO, read-out: HPR accumulation within ocular tissues during the treatment period
Procedure: In order to ensure that the observed effects of HPR in ABCA4 null mice were not due to the genetic mutation, HPR (20 mg/kg, i.p. in DMSO) was administered to wild type mice for 5 days. Control mice received only the DMSO vehicle. On the final day of HPR treatment, the mice were exposed to constant illumination (1000 lux for 10 min) order “stimulate” the visual cycle to generate visual chromophore. Immediately following the illumination period, the animals were sacrificed and the concentrations of retinoids in serum and ocular tissue were determined. […] As in the previous study, HPR caused a significant reduction in serum retinol (˜55%), ocular retinol (˜40%) and ocular retinal (˜30%). Although HPR did accumulate within ocular tissues during the treatment period (˜5 μM), no effect on LRAT or Rpe65/isomerase activities was observed.

LRAT = molecular target: T2, LRAT (Homo sapiens, UniProt O95237); assay: In vitro analyses of LRAT activity; assay type: biochemical; settings: HPR pre-incubated with enzyme source material
T2 sequence (O95237 1-230): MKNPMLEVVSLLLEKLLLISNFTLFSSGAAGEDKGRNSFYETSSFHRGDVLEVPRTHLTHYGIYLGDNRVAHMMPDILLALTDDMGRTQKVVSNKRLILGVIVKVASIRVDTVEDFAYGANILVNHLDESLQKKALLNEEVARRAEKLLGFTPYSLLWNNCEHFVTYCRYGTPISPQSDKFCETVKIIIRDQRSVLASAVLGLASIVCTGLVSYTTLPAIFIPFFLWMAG

RBP-TTR interaction = RBP-TTR interaction (Homo sapiens, UniProt P02753); settings: literature (Malpeli et al.; Holven et al.; Radu et al.); cited from earlier work
[2] = 5-20 mg/kg i.p. in DMSO, 28 days

| Compound | inhibition of RBP-TTR interaction in high throughput assay (retinol-RBP-TTR complex) | reduction in circulating RBP and circulating retinol in vivo (serum retinol and RBP) | reductions in A2E (ABCA4 null mutant mice; [2]) | reductions in ocular retinoids (ABCA4 null mutant mice; [2]) | reductions in serum retinol as a function of increasing serum HPR (ABCA4 null mutant mice; [2]) | effect on visual cycle proteins (e.g., LRAT) when administered systemically (ABCA4 null mutant mice; systemic administration) | concentration at 5 days [1] [µM] | retinol and TTR-probe fluorescence (loss of complexation) (retinol-RBP-TTR complex; 1 μM HPR, 0.5 μM unlabeled RBP + 0.5 μM Alexa430-TTR, 37° C., 30 min, 330 nm excitation) | LRAT activity in vitro (LRAT) | reductions in serum retinol and RBP (serum retinol and RBP; literature (Formelli et al.; Torrisi et al.)) | interaction of TTR with RBP in vitro (RBP-TTR interaction) |
| --- | --- | --- | --- | --- | --- | --- | --- | --- | --- | --- | --- |
| CC1=C(/C=C/C(C)=C/C=C/C(C)=C/C(=O)O)C(C)(C)CCC1 [all-trans retinoic acid, all-trans-retinoic acid] | entirely consistent with the in vivo data | observed in vivo |  |  |  |  |  |  |  |  |  |
| CC1=C(/C=C/C(C)=C/C=C/C(C)=C\C(=O)O)C(C)(C)CCC1 [13-cis retinoic acid, 13-cis-retinoic acid] | entirely consistent with the in vivo data | observed in vivo |  |  |  |  |  |  |  |  |  |
| CC1=C(/C=C/C(C)=C/C=C/C(C)=C/C(=O)Nc2ccc(O)cc2)C(C)(C)CCC1 [HPR, N-(4-hydroxyphenyl)retinamide] | inhibit RBP-TTR interaction | established in vivo | commensurate reductions | commensurate reductions | Profound reductions | limited effect | ~5 | significantly reduced | inhibition of LRAT activity | profound reductions | interferes with the normal interaction of TTR with RBP; also recorded: effective inhibitor |
